Here are results for twelve molecules from US20150290234A1, “TARGETED INTRACELLULAR DELIVERY OF ANTIVIRAL AGENTS” (BBB Holding B.V., priority 2007, published 2015).

The target of series [1] is T1, DTR expressed on LLC-PK1 cells (Sus scrofa, UniProt Q01580).
T1 construct: Cells with a known expression of the DTR were used from several species and origins; endogenous in cells; host or cells: LLC-PK1 (porcine kidney epithelial cells)
The series is described as follows: Receptor-specific cell uptake, fluorescence in cell lysate. Type of series: cell-based, porcine. The conditions noted are these: LLC-PK1, 5 microgram per well, 2 hours. On the procedure:
(§1) Cells with a known expression of the DTR were used from several species and origins, including porcine kidney epithelial cells (LLC-PK1), bovine brain capillary endothelial cells (BCEC), monkey kidney fibroblast cells (COS-1), and human glioblastoma cells. In particular, LLC-PK1 cells were incubated for 1 h in 24-wells plates on 400 microliter DMEM+FCS supplemented with 100 microgram/ml heparin, before 5 microgram CRM197-FITC or HRP-FITC was added to the well. Two hours later the cells were washed 3 times and the cells were lysated in 100 microliter 0.1 N NaOH, and fluorescence was determined at 480/530 nm in a fluostar plate reader. Cell protein per well was determined with a Biorad DC assay and fluorescence in the cell lysate was calculated per mg cell protein. In a separate group of cells, an access of 100 microgram free CRM197 was added to the well, 30 minutes before the CRM197-FITC conjugate was added to the medium. […] In a separate set of experiments, LLC-PK1 cells were cultured in similar conditions on coverslips and exposed to CRM197-FITC, HRP-FITC or sodium fluorescein. After fixation and mounting with vectashield with DAPI for nuclear staining, the coverslips were analyzed on a fluorescence microscope and photographed. […] Identical results were found on BCEC, COS-1 and human glioblastoma cells, also after several time points (up to 24 hours after exposure).

Series [2] deals with LLC-PK1 cells. Put plainly: Cell uptake and localization on coverslips, fluorescence microscope. The conditions noted are these: FIG. 1. The series is classed as cell-based, porcine. The procedure: as §1
Series [3] can be described thus: Biodistribution of FITC conjugates. The following applies: hamster, 90 minutes after i.v. injection, FIG. 4.
Series [4] in a line: Plasma pharmacokinetics of FITC-labelled protein after intravenous bolus. The following applies: hamster, i.v. 1 mg FITC-labelled protein, calculated sixty minutes after injection.
For series [5] the following is noted: cited from earlier work.
The subject of series [6] is LLC-PK1 cells. Put plainly: MTT-assay. The following applies: 10 mg/mL RBV, after 5 h, found to be toxic. (Tetrazolium dyes change colour on reduction, which living cells bring about.)
The subject of the next series is YFV. The series is described as follows: microbe, parasite or virus in culture. Type of series: cell-based. The following applies: Yellow fever virus, Vero, 120 h, read-out: EC50 for inhibition of RNA synthesis [EC50 RNA].
The conditions of series [7]: cited from earlier work. This is another data set of the same source.
The next series has as its system influenza. The following applies: therapy started within 48 hours of the onset of symptoms; cited from earlier work.
The subject of a further series is viral DNA polymerase. The conditions noted are these: cited from earlier work.
For a further series, the system named is CMV-infected cells. The conditions noted are these: cited from earlier work.
In series [8] the target is diphtheria toxin receptor (DTR) expressed on LLC-PK1 cells (porcine kidney epithelial cells) (porcine) (UniProt Q01580). The series is described as follows: cell-based or functional assay.
A short description of series [9]: Pharmacokinetics of sodium fluorescein after intravenous bolus. The conditions noted are these: rats, 1 mg intravenous bolus.
In series [10] the target is T2, HRP-FITC (horseradish peroxidase labelled with FITC) (UniProt P00433 31-338).
T2 construct: also called HRP-FITC conjugate
T2 sequence (looked up): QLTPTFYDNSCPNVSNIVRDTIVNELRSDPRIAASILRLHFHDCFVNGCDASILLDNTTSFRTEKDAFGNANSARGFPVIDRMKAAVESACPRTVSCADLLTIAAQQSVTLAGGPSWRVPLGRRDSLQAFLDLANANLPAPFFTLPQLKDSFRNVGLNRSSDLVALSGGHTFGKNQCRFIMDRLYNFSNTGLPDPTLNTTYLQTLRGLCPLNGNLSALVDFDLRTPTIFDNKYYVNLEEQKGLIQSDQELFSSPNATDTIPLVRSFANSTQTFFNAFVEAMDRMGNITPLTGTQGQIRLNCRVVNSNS
The series is described as follows: uptake by LLC-PK1 cells for 2 h, fluorescence of the cell lysate; fluorescence microscopy also showed no signal.

The target of a further series is T3, HRP-PEG-liposomes (UniProt P00433 31-338).
T3 sequence (looked up): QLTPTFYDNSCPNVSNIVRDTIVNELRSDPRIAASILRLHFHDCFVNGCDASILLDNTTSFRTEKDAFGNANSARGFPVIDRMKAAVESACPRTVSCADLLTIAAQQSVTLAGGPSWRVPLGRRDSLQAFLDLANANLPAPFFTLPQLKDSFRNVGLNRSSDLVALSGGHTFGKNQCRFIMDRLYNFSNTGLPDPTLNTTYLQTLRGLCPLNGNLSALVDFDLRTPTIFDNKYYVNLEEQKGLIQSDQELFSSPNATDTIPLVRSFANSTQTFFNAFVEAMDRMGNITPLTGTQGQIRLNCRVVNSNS
Put plainly: fluorescence microscopy of LLC-PK1 cells after 4 hours incubation.

For series [11], the target named is T2, HRP-FITC (horseradish peroxidase …). Put plainly: fluorescence microscopy of cells on coverslips.
The mark [12] stands for this setting: 500 mg of probenecid every six hours.

Values after ≈ are worked out from the molar mass of the structure shown. Like-named read-outs stand apart in the source and are kept apart here.

On to “HRP-FITC: horseradish peroxidase (HRP) labelled with FITC as a control protein”, for which the “conjugate found in the cell lysates” value in [1] is “No HRP-FITC was found”. For the same molecule, the “fluorescence signal / uptake in cells” value in the series on LLC-PK1 cells [2] is listed as “No fluorescence signal was found”. The “accumulation in tissues (brain, heart, lung, liver, spleen, kidney)” value in series [3] is reported as “not (or hardly) detectable in these tissues”. In addition, in series [4], the plasma half-life was 0.633 h.
The half-life is the time in which the quantity being followed falls by half. As for `Nc1nc(O)c2ncn(COC(CO)CO)c2n1` [ganciclovir], in series [5] (depending on renal function), the half-life is 2 to 6 h. The “elimination time in end-stage renal disease” value in series [5] (end-stage renal disease) is “over 24 hours”. Further, the “absorption of the oral form, fasting” value in series [5] (fasting) is given as “about 5%”. Moreover, in series [5] (in vivo), the “concentration in the central nervous system relative to plasma level” value is “about 50 % of the plasma level” and the “plasma drug eliminated unchanged in the urine” value was “About 90%”. In addition, in series [5], the oral bioavailability result was “approximately 5%”. Besides, the “absorption of the oral form, with food” value in [5] (with food) was “about 8%”.
The cell viability is the share of living cells, or the viability signal relative to a control. A lower cell viability goes with a greater loss of cells. A word on the EC50: it is the concentration that produces a half-maximal response. On to `NC(=O)c1ncn([C@@H]2O[C@H](CO)[C@@H](O)[C@H]2O)n1` [RBV, 1-beta-D-ribofuranosyl-1,2,4-triazole-3-carboxamide], for which the “absorption from the GI tract with a fatty meal” value in [5] (fatty meal) is reported as “about 75%”. Besides, in series [5] (in vivo), the “absorption from the GI tract” value was “about 45%” and the “fraction of absorbed drug excreted into the urine unchanged” value is on record as “About a third”. Moreover, in series [5] (multiple doses), the “mean half-life for multiple doses in the body” value is given as “about 12 days”. Also, in series [5] (single dose), the “half-life after single dose” value is 0.5 h. Besides, the cell viability in the series with LLC-PK1 cells [6] turned out to be 60%. Further, the EC50 in the series with YFV was determined as 12.3 ± 5.6 µg/mL (≈ 50.4 µM).
For the molecule `Nc1nc2c(ncn2COCCO)c(=O)[nH]1` [Aciclovir], the “protein binding in plasma” value in series [5] (in vivo) is reported as 30%. Also, the oral bioavailability in series [5] was 10-20%. In addition, the “time of peak plasma concentration” value in [5] (orally administered) was 1 to 2 h. Further, the water solubility entry in [7] is recorded as “poorly water soluble”.
With `CC(=O)NC1C(NC(=N)N)C=C(C(=O)O)OC1C(O)C(O)CO` (centres unmarked) [Zanamivir, 5-acetamido-4-guanidino-6-(1,2,3-trihydroxypropyl)-5,6-dihydro-4H-pyran-2-carboxylic acid], the “reduction of time to symptom resolution” value with influenza was 1.5 days. Further, in [5] (in vivo), the “(elimination) half-life” value is 2.5 to 5.1 h and the “protein binding in plasma” value is < 10%. The oral bioavailability in series [5] is 2%.
Take `Nc1nc2c(ncn2COCCOP(=O)(O)OP(=O)(O)OP(=O)(O)O)c(=O)[nH]1` [Aciclo-GTP]: the “affinity to viral relative to cellular polymerase” value in the series on viral DNA polymerase is given as “approximately 100 times”. Also, the “half-life compared to GCV-TP in infected cells” value in the series on CMV-infected cells was “four- to five-fold shorter”.
Turning to `CCOC(=O)C1=C[C@@H](OC(CC)CC)[C@H](NC(C)=O)[C@@H](N)C1` [Oseltamivir, (3R,4R,5S)-4-acetylamino-5-amino-3-(1-ethylpropoxy)-1-cyclohexene-1-carboxylic acid ethyl ester], in [5] (setting [12]), the “change of half-life with probenecid” value is “doubled”, the “change of peak plasma concentration (Cmax) with probenecid” value was “doubled” and the “increase of overall systemic exposure (AUC) with probenecid” value is recorded as 2.5 fold. For the same molecule, in series [5] (in vivo), the “(elimination) half-life” value was 6 to 10 h. Also, in [5], the oral bioavailability is reported as 75%.
Molecule “CRM197-FITC conjugate (from UniProt P00588 33-567) (ligand)” displayed a cell uptake: CRM197-FITC in the cell lysate per mg cell protein after 2 hours (microgram per mg cell protein) in series [8] of 0.54.
Take `O=C([O-])c1ccccc1-c1c2ccc(=O)cc-2oc2cc([O-])ccc12.[Na+].[Na+]` [sodium fluorescein]: the “fluorescence signal / uptake in cells” value in the series with LLC-PK1 cells [2] was “No fluorescence signal was found”. Besides, in series [9], the AUC is 13 microgram*min/ml and the half-life worked out at 0.583 h.

B1: diphtheria toxin receptor (DTR) expressed on LLC-PK1 cells (porcine kidney epithelial cells) (receptor, UniProt Q01580 63-148, looked up)
chain: DLEEADLDLLRADFSSKPQALATPSKEERGKRKKKGKGLGKKRDPCLRKYKDFCIHGECKYVKELRAPSCICHPGYHGERCHGLSL
notes: whole, on cells; also called HB-EGF
Take B1: the binding result (in series [10]; with HRP-PEG-liposomes) was “no binding” each time.

B2: diphtheria toxin receptor (DTR) on human glioblastoma cells (receptor, UniProt Q99075 63-148, looked up)
chain: DLQEADLDLLRVTLSSKPQALATPNKEEHGKRKKKGKGLGKKRDPCLRKYKDFCIHGECKYVKELRAPSCICHPGYHGERCHGLSL
notes: whole, on cells; also called HB-EGF precursor
With B2, the binding result in series [11] is “no binding”.

B3: diphtheria toxin receptor (DTR) on bovine brain capillary endothelial cells (BCEC) (receptor)
chain: DLEEANLDLFRAAFSSKPQALATPSKEERGKRKKKGKGLGKKRNPCLRRYKDFCIHGECKYVKELRVPTCICHPGYHGERCHGLSL
notes: as for B2
For the molecule B3, in [11], the binding result is reported as “no binding”.
